Experimental data as given in the SangsterLogP compilation.
One block for each molecule: values may come before it.

How the values were obtained:
[1] = method code SF-AS, from DOI: 10.1021/jm00234a001, PMID: 1003419
[2] = method code SF, from DOI: 10.1016/s0968-0896(00)00025-0, PMID: 10882003
[3] = method code SF-HPLC, from DOI: 10.1007/s00216-006-0868-5, PMID: 17082876
[4] = method code SF-AS, from DOI: 10.1007/s001289900158, PMID: 8661463
[5] = method code SF-AS, from PMID: 10944786; settings: pH 7.0
[6] = method code SF-AS, from DOI: 10.1021/jm00291a017, PMID: 5140011
[7] = method code SF-AS, from DOI: 10.1002/chin.199416148, PMID: 8117185
[8] = method code SF-AS, from DOI: 10.1021/jm00253a014, PMID: 4151967; settings: pH 7.4
[9] = method code SF-AS, from DOI: 10.1002/jps.2600710122
[10] = not given; remark: listed apart in the source
[11] = method code SF-AS, from DOI: 10.1016/j.ejmech.2011.02.056, PMID: 21420207
[12] = method code SF-HPLC, from PMID: 2780588
[13] = method code SF-HPLC, from PMID: 9554875; settings: pH 6.8
[14] = method code SF-HPLC, from DOI: 10.1016/0045-6535(86)90532-1; settings: pH 6.5
[15] = not given; remark: listed apart in the source
[16] = not given; remark: listed apart in the source
[17] = not given; remark: listed apart in the source
[18] = method code SF-NMR, from DOI: 10.1002/jps.2600751016, PMID: 3795031
[19] = not given; remark: listed apart in the source
[20] = method code SF, from Yoshimoto, M. (1982). Quantitative structure-activity relationships and structure patterns of drugs. SankyoÌ„ KenkyuÌ„jo nenpoÌ„ (Annual report of Sankyo Research Laboratories), 34, 1-38.

- logP [1]: 1.68
Compound: Oc1c(I)cc(I)c(O)c1I

- logD ([2]; pH 7.4): 0.78
Compound: O=c1cccc(Cl)[nH]1

- logP: 5.24
Compound: Cc1ccc2c(ccc3ccccc32)c1

- logP [3]: 3.25
Compound: Cc1ccc(S(=O)(=O)Cl)cc1

- logP [4]: 0.62
Compound: NNc1nc(NN)nc(N2CCOCC2)n1

- logD [5]: 2.42
Compound: CCCOc1ccc(NC(=O)OCN2CCCCC2)cc1

- logP [6]: 0.13
Compound: S=C1CCCCN1

- logP [7]: 1.44
Compound: O=C(CCN1CCCCC1)CN1C(=O)C2CC=CCC2C1=O (configuration not stated)

Compound: CCn1c(C)c(COC(N)=O)c2c1C(=O)C(C)=C(OC)C2=O
- logD [8]: 1.81

- logP [9]: 0.79
Compound: CCCC(=O)Nc1n[nH]c(NC(=O)CCC)n1

Compound: COP(=O)(NC(C)=O)SC (configuration not stated)
- logP [10]: -0.46

- logP [3]: 2
Compound: O=C(Nc1ccccc1)C(=O)Nc1ccccc1

- logP [2]: -0.56
Compound: O=c1cccc[nH]1

- logP [11]: 2
Compound: CCSCCCCCCCCCCCC(=O)NC1CC(OC2CC(O)(C(=O)CO)Cc3c(O)c4c(c(O)c32)C(=O)c2c(OC)cccc2C4=O)OC(C)C1O (configuration not stated)

- logP [12]: 1.67
Compound: CCCCCNC(=O)Cc1ccc(O)c(OC)c1

- logP [7]: 1.55
Compound: CC(C(=O)CCN1CCCCC1)N1C(=O)C2CC=CCC2C1=O (configuration not stated)

- logP [4]: 2.17
Compound: CCN(CC)c1nc(Cl)nc(Cl)n1

Compound: c1ccc2cc3cc4ccccc4cc3cc2c1
- logP: 5.76

Compound: Cc1cc(C)c2c(c1)COP(=O)(OCC1C=CC(n3cc(C)c(=O)[nH]c3=O)O1)O2 (configuration not stated)
- logD [13]: 1.18

- logD [14]: 0.57
Compound: CCNC(=S)NCC

- logP [11]: 2.17
Compound: CCCCCCCCCCCCCCCCCC(=O)N[C@H]1C[C@H](O[C@H]2C[C@](O)(C(=O)CO)Cc3c(O)c4c(c(O)c32)C(=O)c2c(OC)cccc2C4=O)O[C@@H](C)[C@H]1O

- logP [4]: 1.16
Compound: Clc1ccnc(Cl)n1

- logD [5]: 2.33
Compound: CCCOc1ccccc1NC(=O)OCN1CCCCC1

- logP [15]: 4.25
Compound: OCCN1CCN(CCCN2c3ccccc3Sc3ccc(Cl)cc32)CC1

- logP [12]: 3.74
Compound: CCCCCCCCCCCNC(=O)Cc1ccc(O)c(OC)c1

- logP: 5.08
Compound: Cc1cccc2c1ccc1ccccc12

- logP [2]: -0.04
Compound: Cc1cccc(=O)[nH]1

Compound: CCCCCCCCC(=O)NCc1ccc(O)c(OC)c1
- logP [12]: 2.96

- logP [16]: 4.84
Compound: CCCC(=O)OCC(COC(=O)C(C)c1ccc2cc(OC)ccc2c1)OC(=O)CCC (configuration not stated)

- logP [15]: 4.79
Compound: CN1CCN(CCCN2c3ccccc3Sc3ccc(Cl)cc32)CC1

- logP: 6.81
Compound: c1ccc2cc3cc4c(ccc5ccccc54)cc3cc2c1

- logP [16]: 6.28
Compound: CCCCCCCCCCCCCCCC(=O)OCC(COC(=O)C(C)c1ccc2cc(OC)ccc2c1)OC(=O)CCCCCCCCCCCCCCC (configuration not stated)

- logD [14]: -0.21
Compound: CCNC(N)=S

- logP [16]: 6.39
Compound: CCCCCCCC/C=C\CCCCCCCC(=O)OCC(COC(=O)C(C)c1ccc2cc(OC)ccc2c1)OC(=O)CCCCCCC/C=C\CCCCCCCC (configuration not stated)

Compound: O=C1C(Cl)=C(Cl)C(=O)C(Cl)=C1Cl
- logP [3]: 2.19

- logP [15]: 4.82
Compound: CCSc1ccc2c(c1)N(CCCN1CCN(C)CC1)c1ccccc1S2

Compound: Cc1cn(C2C=CC(COP3(=O)OCc4ccccc4O3)O2)c(=O)[nH]c1=O (configuration not stated)
- logD [13]: 0.28

- logP [4]: 1.22
Compound: CCN(CC)c1nc(NN)nc(NN)n1

Compound: COC(N)=O
- logP [17]: -0.64

- logP [6]: 1.44
Compound: S=C1CCCCCCCN1

- logP [7]: 2.23
Compound: O=C(CCN1CCCCC1)CN1C(=O)CC(c2ccc(Cl)cc2)C1=O (configuration not stated)

- logD [5]: 3.04
Compound: CCCCOc1ccc(NC(=O)OCN2CCCCC2)cc1

- logD [8]: 1.54
Compound: COC1=C(C)C(=O)c2c(c(COC(N)=O)c3n2CCC3OC(C)=O)C1=O (configuration not stated)

- logP: 5.85
Compound: CCc1ccc2cc3ccccc3cc2c1

- logD [5]: 2.6
Compound: CCCOc1cccc(NC(=O)OCN2CCCCC2)c1

Compound: CC1=C(N)C(=O)c2c(COC(N)=O)c3n(c2C1=O)CCC3O (configuration not stated)
- logD [8]: 0.64

- logP [10]: 2.43
Compound: CCCOC(=O)NCCCN(C)C

- logP [2]: 2.08
Compound: CCOC(=O)c1cc(C#N)c(=O)[nH]c1C(F)(F)F

- logP [9]: -0.07
Compound: CCC(=O)Nc1n[nH]c(NC(=O)CC)n1

Compound: Cc1cccc2c1OP(=O)(OCC1C=CC(n3cc(C)c(=O)[nH]c3=O)O1)OC2 (configuration not stated)
- logD [13]: 0.71

- logP [15]: 4.4
Compound: COc1ccc2c(c1)N(CC(C)CN(C)C)c1ccccc1S2 (configuration not stated)

- logP [7]: 0.86
Compound: O=C(CCN1CCCCC1)CN1C(=O)c2ccccc2C1=O

- logD [8]: 1.64
Compound: CCn1c(C)c(COC(=O)NCCO)c2c1C(=O)C(C)=C(OC)C2=O

- logP [18]: 0.71
Compound: CC(O)CC(F)(F)F (configuration not stated)

- logP [11]: 2.31
Compound: CCCCCCCCCCCCCCCCCCCC(=O)N[C@H]1C[C@H](O[C@H]2C[C@](O)(C(=O)CO)Cc3c(O)c4c(c(O)c32)C(=O)c2c(OC)cccc2C4=O)O[C@@H](C)[C@H]1O

- logP [19]: 5.33
Compound: COc1ccc(NC(=O)c2cc(-c3sc(NC(=O)C(C)(C)C)nc3C)nn2Cc2ccc(Cl)cc2OC)cc1

- logP [11]: 1.92
Compound: CCCCCCCCCC(=O)N[C@H]1C[C@H](O[C@H]2C[C@](O)(C(=O)CO)Cc3c(O)c4c(c(O)c32)C(=O)c2c(OC)cccc2C4=O)O[C@@H](C)[C@H]1O

- logD [14]: 0.49
Compound: CN(C)C(=S)N(C)C

- logP [17]: -0.02
Compound: OCCCCCCO

- logP [19]: 4.1
Compound: COc1cc(Cl)ccc1Cn1nc(-c2sc(NC(=O)C(C)(C)C)nc2C)cc1C(=O)N1CCOCC1

- logP [18]: 1.64
Compound: OCCCCCC(F)(F)F

- logP [20]: -2.16
Compound: COC1(NC(=O)CSc2nnc(C)s2)C(=O)N2C(C(=O)O)=C(COC(N)=O)CSC21 (configuration not stated)

- logP [6]: 0.75
Compound: S=C1CCCCCN1

- logP [9]: 0.55
Compound: O=C(Nc1n[nH]c(NC(=O)c2ccc([N+](=O)[O-])cc2)n1)c1ccc([N+](=O)[O-])cc1

- logP [19]: 4.82
Compound: Cc1nc(NC(=O)C(C)(C)C)sc1-c1cc(C(=O)NCc2ccccc2)n(Cc2ccccc2)n1

- logP [15]: 4.89
Compound: CC(NCCC(c1ccccc1)c1ccccc1)c1ccccc1 (configuration not stated)

- logP [6]: 1
Compound: S=C1CCCCCCN1

Compound: Cc1cccc2sc3nncn3c12
- logP [10]: 2.07

- logP [9]: 0.62
Compound: O=C(Nc1n[nH]c(NC(=O)C(F)(F)F)n1)C(F)(F)F

- logD [14]: -0.43
Compound: CN(C)C(N)=S

- logD [5]: 2.39
Compound: CCCCOc1ccccc1NC(=O)OCN1CCCCC1

- logP [16]: 5.68
Compound: CCCCCC(=O)OCC(CCOC(=O)c1ccc2cc(OC)ccc2c1)OC(=O)CCCCC (configuration not stated)

- logP [19]: 4.55
Compound: C=CCn1nc(-c2sc(NC(=O)C(C)(C)C)nc2C)cc1C(=O)Nc1ccc(OC)cc1

Compound: Cc1ccc2c(c1)COP(=O)(OCC1C=CC(n3cc(C)c(=O)[nH]c3=O)O1)O2 (configuration not stated)
- logD [13]: 0.73

- logP [16]: 6.08
Compound: CCCCCCCCCCCC(=O)OCC(COC(=O)C(C)c1ccc2cc(OC)ccc2c1)OC(=O)CCCCCCCCCCC (configuration not stated)

- logP [18]: 1.61
Compound: CC(CCO)CC(F)(F)F (configuration not stated)

- logP [17]: 0.37
Compound: CCCCC(N)=O

- logP [12]: 3.31
Compound: CCCCCCCCC(=O)NCc1cccc(OC)c1

- logP [7]: 0.77
Compound: CC(C(=O)CCN(C)C)N1C(=O)C2CC=CCC2C1=O (configuration not stated)

Compound: CNC(=O)O/N=C/C(C)(C)SC
- logP [10]: 1.19

- logP [19]: 5.17
Compound: COc1ccc(NC(=O)c2cc(-c3sc(NC(=O)C(C)(C)C)nc3C)n(-c3ccc(Br)cc3)n2)cc1

Compound: COc1ccc2c(c1)COP(=O)(OCC1C=CC(n3cc(C)c(=O)[nH]c3=O)O1)O2 (configuration not stated)
- logD [13]: 0.36

- logP [18]: 1.15
Compound: OCCCCC(F)(F)F

- logP [17]: -1.21
Compound: OCCO

Compound: COc1cc(CNC(=O)CCCC/C=C/C(C)C)ccc1O
- logP [12]: 3.04

- logP [20]: -1.31
Compound: CCCCCSCC(=O)NC1(OC)C(=O)N2C(C(=O)O)=C(COC(N)=O)CSC21 (configuration not stated)

- logP [20]: -1.57
Compound: CCCCSCC(=O)NC1(OC)C(=O)N2C(C(=O)O)=C(COC(N)=O)CSC21 (configuration not stated)

- logP [20]: -1.76
Compound: CCCSCC(=O)NC1(OC)C(=O)N2C(C(=O)O)=C(COC(N)=O)CSC21 (configuration not stated)

Compound: COC1=C(C)C(=O)c2c(c(COC(N)=O)c3n2CCC3)C1=O
- logD [8]: 1.71

- logP [11]: 1.94
Compound: CCCCCCCCCCCCCC(=O)N[C@H]1C[C@H](O[C@H]2C[C@](O)(C(=O)CO)Cc3c(O)c4c(c(O)c32)C(=O)c2c(OC)cccc2C4=O)O[C@@H](C)[C@H]1O

- logP [3]: 3.49
Compound: C=Cc1ccccc1C=C

- logP [20]: -1.99
Compound: COC1(NC(=O)CSc2[nH]cnc3ncnc2-3)C(=O)N2C(C(=O)O)=C(COC(N)=O)CSC21 (configuration not stated)
